Data as given in patent US6235777A, “Benzenesulfonamide compounds” (Ono Pharmaceutical Co., Ltd., priority 1997, dated 2001).

Experiments:
mouse EP3 = target: T1, mouse EP3 (Mus musculus, UniProt P30557); experiment: Binding assay using expression cell of prostanoid receptor subtype (EP3; competition of specific 3H-PGE2 binding to CHO cell membrane fraction); conditions: Table 1, 3H-PGE2 2.5 nM, 1 hour, room temperature, pH6.0, read-out: dissociation constant to receptor subtype, Ki (EP3), present invention compounds
T1 construct: expressed in transfected cells; host or cells: CHO
T1 sequence (P30557 1-365): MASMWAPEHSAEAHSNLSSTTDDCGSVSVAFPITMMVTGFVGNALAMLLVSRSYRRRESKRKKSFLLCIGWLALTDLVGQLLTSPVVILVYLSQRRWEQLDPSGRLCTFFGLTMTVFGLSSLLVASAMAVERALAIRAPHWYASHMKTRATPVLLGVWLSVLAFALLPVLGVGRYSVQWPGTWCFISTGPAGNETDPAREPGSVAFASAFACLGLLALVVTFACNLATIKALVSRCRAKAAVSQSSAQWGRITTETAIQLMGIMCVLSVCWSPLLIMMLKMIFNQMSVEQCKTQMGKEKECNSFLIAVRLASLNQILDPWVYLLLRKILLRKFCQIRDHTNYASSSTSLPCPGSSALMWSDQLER
Method: (§1) (i) Binding Assay Using Expression Cell of Prostanoid Receptor Subtype
(§2) The standard assay mixture contained membrane fraction (0.5 mg/ml), ^3 H-PGE2 in a final volume of 200 microliter was incubated for 1 hour at room temperature. The reaction was terminated by addition of 3 ml of ice-cold buffer. The mixture was rapidly filtered through a glass filter (GF/B). The radioactivity associated with the filter was measured by liquid scintillation counting.
(§3) Non-specific binding was calculated as the binding in the presence of an excess (2.5 microM) of unlabeled PGE2. […] The following buffer was used in all reaction. Buffer:potassium phosphate (pH6.0, 10 mM), EDTA (1 mM), MgCl2 (10 mM), NaCl (0.1M).
(§4) The dissociation constant Ki (microM) of each compound was calculated by the following equation.

mouse EP1 = target: T2, mouse EP1 (Mus musculus, UniProt P35375); experiment: Binding assay using expression cell of prostanoid receptor subtype (EP1; competition of specific 3H-PGE2 binding to CHO cell membrane fraction); conditions: Table 1, 3H-PGE2 2.5 nM, 1 hour, room temperature, pH6.0, read-out: dissociation constant to receptor subtype, Ki (EP1), present invention compounds
T2 construct: expressed in transfected cells; host or cells: CHO
T2 sequence (P35375 1-405): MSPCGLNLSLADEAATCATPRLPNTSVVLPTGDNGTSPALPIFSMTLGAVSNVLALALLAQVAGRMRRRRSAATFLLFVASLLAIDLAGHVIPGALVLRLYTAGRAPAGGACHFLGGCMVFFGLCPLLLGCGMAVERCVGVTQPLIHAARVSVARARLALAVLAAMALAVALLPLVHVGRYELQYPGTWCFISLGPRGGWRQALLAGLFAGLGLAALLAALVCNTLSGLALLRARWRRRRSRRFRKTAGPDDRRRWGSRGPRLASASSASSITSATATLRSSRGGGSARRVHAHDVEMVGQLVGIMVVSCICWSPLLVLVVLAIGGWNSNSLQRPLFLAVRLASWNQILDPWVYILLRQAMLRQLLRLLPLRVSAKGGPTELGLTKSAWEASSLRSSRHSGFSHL
Method: as §1, §2, §3, §4

For `Cc1cc(Cl)ccc1S(=O)(=O)NC[C@H]1C2CCC(CC2)[C@@H]1/C=C\CCCC(=O)O` [Example 2(c), 6-[(2S, 3S)-3-(4-chloro-2-methylphenylsulfonylaminomethyl)bicyclo[2.2. 2]octan-2-yl]-5Z-hexenoic acid], the Ki (mouse EP3) was 200 nM and the Ki (mouse EP1) was 1.8 nM.

In the case of `Cc1cc(Br)ccc1S(=O)(=O)NC[C@H]1C2CCC(CC2)[C@H]1/C=C\CCCC(=O)O` [Example 2(d), 6-[(2S, 3S)-3-(4-bromo-2-methylphenylsulfonylaminomethyl)bicyclo[2.2. 2]octan-2-yl]-5Z-hexenoic acid], the Ki (mouse EP3) is reported as 85 nM and the Ki (mouse EP1) is reported as 1.4 nM.

`O=C(O)CCC/C=C\[C@@H]1C2CCC(CC2)[C@@H]1CNS(=O)(=O)c1c(Cl)cc(Cl)cc1Cl` [Example 2(g), 6-[(2S, 3S)-3-(2,4,6-trichlorophenylsulfonylaminomethyl)bicyclo[2.2. 2]octan-2-yl]-5Z-hexenoic acid] showed a Ki (mouse EP3) of 950 nM and a Ki (mouse EP1) of 3.4 nM.

`Cc1cc(Cl)cc(Cl)c1S(=O)(=O)NC[C@H]1C2CCC(CC2)[C@H]1/C=C\CCCC(=O)O` [Example 2(k), 6-[(2S, 3S)-3-(2,4-dichloro-6-methylphenylsulfonylaminomethyl)bicyclo[2.2. 2]octan-2-yl]-5Z-hexenoic acid] gave a Ki (mouse EP3) of 1400 nM and a Ki (mouse EP1) of 2.4 nM.

For `Cc1cc(Cl)ccc1S(=O)(=O)NC[C@H]1C2CCC(CC2)[C@H]1/C=C/CCCC(=O)O` [Example 2(n), 6-[(2S, 3S)-3-(4-chloro-2-methylphenylsulfonylaminomethyl)bicyclo[2.2. 2]-octan-2-yl]-5E-hexenoic acid], the Ki (mouse EP3) was 1900 nM and the Ki (mouse EP1) was 5.1 nM.

`O=C(O)CCC/C=C\[C@@H]1C2CCC(CC2)[C@@H]1CNS(=O)(=O)c1ccc(Cl)cc1Cl` [Example 2, 6-[(2S, 3S)-3-(2,4-dichlorophenylsulfonylaminomethyl)bicyclo[2.2. 2]octan-2-yl]-5Z-hexenoic acid] showed a Ki (mouse EP3) of 120 nM and a Ki (mouse EP1) of 0.5 nM.

Work on `O=C(O)CCC/C=C\[C@H]1CCCC[C@@H]1CNS(=O)(=O)c1ccc(Cl)cc1Cl` [Example 3(a), 6-[(1R, 2S)-2-(2,4-dichlorophenylsulfonylaminomethyl)cyclohexyl]-5Z-hexenoic acid] yielded a Ki (mouse EP3) of 18 nM and a Ki (mouse EP1) of 3.1 nM.

For `O=C(O)CCC/C=C\[C@H]1CCCC[C@@H]1CNS(=O)(=O)c1c(Cl)cc(Cl)cc1Cl` [Example 3(e), 6-[(1R, 2S)-2-(2,4,6-trichlorophenylsulfonylaminomethyl)cyclohexyl]-5Z-hexenoic acid], the Ki (mouse EP3) was 110 nM and the Ki (mouse EP1) was 8.4 nM.

With `Cc1cc(Cl)ccc1S(=O)(=O)NC[C@H]1CCCC[C@@H]1/C=C\CCCC(=O)O` [Example 3(f), 6-[(1R, 2S)-2-(4-chloro-2-methylphenylsulfonylaminomethyl)cyclohexyl]-5Z-hexenoic acid] the Ki (mouse EP3) was 41 nM and the Ki (mouse EP1) was 1.1 nM.

Work on `Cc1cc(Cl)ccc1S(=O)(=O)NC[C@H]1CC=CC[C@@H]1/C=C\CCCC(=O)O` [Example 4(b), 6-[(4R, 5S)-5-(4-chloro-2-methylphenylsulfonylaminomethyl)cyclohexen-4-yl]-5Z-hexenoic acid] yielded a Ki (mouse EP3) of 52 nM and a Ki (mouse EP1) of 17 nM.

Compound `O=C(O)CCC/C=C\[C@H]1CC=CC[C@@H]1CNS(=O)(=O)c1ccc(Cl)cc1F` [Example 4(c), 6-[(4R, 5S)-5-(4-chloro-2-fluorophenylsulfonylaminomethyl)cyclohexen-4-yl]-5Z-hexenoic acid] has a Ki (mouse EP3) of 180 nM and a Ki (mouse EP1) of 39 nM.

Work on `Cc1cc(Br)ccc1S(=O)(=O)NC[C@H]1CC=CC[C@@H]1/C=C\CCCC(=O)O` [Example 4(f), 6-[(4R, 5S)-5-(4-bromo-2-methylphenylsulfonylaminomethyl)cyclohexen-4-yl]-5Z-hexenoic acid] yielded a Ki (mouse EP3) of 12 nM and a Ki (mouse EP1) of 5.7 nM.

With `O=C(O)CCC/C=C\[C@@H]1[C@@H]2CC[C@@H](C2)[C@@H]1CNS(=O)(=O)c1ccc(Cl)cc1Cl` [Example 5(a), 6-[(1R, 2S, 3S, 4S)-3-(2,4-dichlorophenylsulfonylaminomethyl)bicyclo[2.2. 1]-heptan-2-yl]-5Z-hexenoic acid] the Ki (mouse EP3) was 280 nM and the Ki (mouse EP1) was 12 nM.

`O=C(O)CCC/C=C\[C@@H]1[C@@H]2CC[C@@H](C2)[C@@H]1CNS(=O)(=O)c1ccc(Cl)cc1F` [Example 5(d), 6-[(1R, 2S, 3S, 4S)-3-(4-chloro-2-fluorophenylsulfonylaminomethyl)bicyclo[2.2. 1]heptan-2-yl]-5Z-hexenoic acid] gave a Ki (mouse EP3) of 1200 nM and a Ki (mouse EP1) of 23 nM.

`Cc1cc(Cl)ccc1S(=O)(=O)NC[C@H]1[C@H]2CC[C@H](C2)[C@H]1/C=C\CCCC(=O)O` [Example 5(e), 6-[(1R, 2S, 3S, 4S)-3-(4-chloro-2-methylphenylsulfonylaminomethyl)bicyclo[2.2. 1]heptan-2-yl]-5Z-hexenoic acid] was tested, and the Ki (mouse EP3) was 200 nM and the Ki (mouse EP1) was 7.2 nM.

In the case of `O=C(O)CCC/C=C\[C@@H]1[C@@H](CNS(=O)(=O)c2ccc(Cl)cc2Cl)[C@@H]2C=C[C@H]1CC2` [Example 6(a), 6-[(1S, 4R, 5S, 6S)-6-(2,4-dichlorophenylsulfonylaminomethyl)bicyclo[2.2. 2]-oct-2-en-5-yl]-5Z-hexenoic acid], the Ki (mouse EP3) is reported as 370 nM and the Ki (mouse EP1) is reported as 3.9 nM.

`Cc1cc(Cl)cc(C)c1S(=O)(=O)NC[C@@H]1[C@@H](/C=C\CCCC(=O)O)[C@H]2C=C[C@@H]1CC2` [Example 6(e), 6-[(1S, 4R, 5S, 6S)-6-(4-chloro-2,6-dimethylphenylsulfonylaminomethyl)bicyclo[2.2. 2]oct-2-en-5-yl]-5Z-hexenoic acid] was tested, and the Ki (mouse EP3) was 1100 nM and the Ki (mouse EP1) was 4.2 nM.

For `O=C(O)CCC/C=C\[C@@H]1[C@@H](CNS(=O)(=O)c2ccc(Cl)cc2F)[C@H]2C=C[C@@H]1CC2` [Example 7(d), 6-[(1R, 4S, 5S, 6S)-6-(4-chloro-2-fluorophenylsulfonylaminomethyl)bicyclo[2.2. 2]oct-2-en-5-yl]-5Z-hexenoic acid], the Ki (mouse EP3) was 1400 nM and the Ki (mouse EP1) was 3.9 nM.

In the case of `O=C(O)CCC/C=C\[C@@H]1[C@@H](CNS(=O)(=O)c2c(Cl)cc(Cl)cc2Cl)[C@H]2C=C[C@@H]1CC2` [Example 7(f), 6-[(1R, 4S, 5S, 6S)-6-(2,4,6-trichlorophenylsulfonylaminomethyl)bicyclo[2.2. 2]oct-2-en-5-yl]-5Z-hexenoic acid], the Ki (mouse EP3) is reported as 1500 nM and the Ki (mouse EP1) is reported as 7.2 nM.
